For assay [1], the target named is T1, Serine/threonine-protein kinase TAO2 (Homo sapiens) (UniProt Q9UL54).
T1 sequence (whole entry): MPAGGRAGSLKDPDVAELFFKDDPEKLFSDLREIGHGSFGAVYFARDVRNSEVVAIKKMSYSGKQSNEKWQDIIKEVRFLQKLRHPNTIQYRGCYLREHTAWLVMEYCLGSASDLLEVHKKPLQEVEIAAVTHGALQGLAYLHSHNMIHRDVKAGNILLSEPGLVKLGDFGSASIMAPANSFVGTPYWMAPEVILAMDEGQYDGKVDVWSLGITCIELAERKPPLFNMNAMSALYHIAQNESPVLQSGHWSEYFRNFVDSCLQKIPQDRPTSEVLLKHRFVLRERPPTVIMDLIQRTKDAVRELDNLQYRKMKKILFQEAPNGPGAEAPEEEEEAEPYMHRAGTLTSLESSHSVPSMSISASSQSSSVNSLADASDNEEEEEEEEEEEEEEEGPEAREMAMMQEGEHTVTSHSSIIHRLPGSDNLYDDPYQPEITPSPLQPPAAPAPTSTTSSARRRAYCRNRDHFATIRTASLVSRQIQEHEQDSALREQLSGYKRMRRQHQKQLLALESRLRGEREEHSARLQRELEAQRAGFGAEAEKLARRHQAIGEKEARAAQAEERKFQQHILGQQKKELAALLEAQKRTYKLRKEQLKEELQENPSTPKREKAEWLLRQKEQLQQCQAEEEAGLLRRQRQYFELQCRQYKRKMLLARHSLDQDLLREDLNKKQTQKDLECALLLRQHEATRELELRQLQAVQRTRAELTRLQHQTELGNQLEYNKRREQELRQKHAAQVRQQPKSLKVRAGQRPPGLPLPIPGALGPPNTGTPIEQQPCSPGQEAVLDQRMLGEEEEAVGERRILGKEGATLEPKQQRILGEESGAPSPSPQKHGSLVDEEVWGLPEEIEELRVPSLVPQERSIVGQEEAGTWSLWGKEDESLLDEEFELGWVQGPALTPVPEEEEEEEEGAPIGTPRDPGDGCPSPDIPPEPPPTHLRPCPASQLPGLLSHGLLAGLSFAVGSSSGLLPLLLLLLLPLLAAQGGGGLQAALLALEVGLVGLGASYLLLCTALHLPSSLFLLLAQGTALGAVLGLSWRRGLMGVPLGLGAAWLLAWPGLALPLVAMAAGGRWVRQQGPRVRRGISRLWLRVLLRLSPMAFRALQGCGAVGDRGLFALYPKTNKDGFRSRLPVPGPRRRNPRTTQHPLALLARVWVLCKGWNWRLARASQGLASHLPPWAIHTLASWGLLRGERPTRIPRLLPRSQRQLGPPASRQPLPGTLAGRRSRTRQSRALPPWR
The experiment in a line: Inhibition of TAOK2 (unknown origin) at 1 uM by Ambit Kinomescan binding assay relative to control.

Assay [2] concerns the target Serine/threonine-protein kinase Nek3 (Homo sapiens) (UniProt P51956). The experiment in a line: Inhibition of NEK3 (unknown origin) at 1 uM by Ambit Kinomescan binding assay relative to control; values are per cent of control.
Assay [3] deals with Serine/threonine-protein kinase 25 (Homo sapiens) (UniProt O00506). The experiment in a line: Inhibition of YSK1 (unknown origin) at 1 uM by Ambit Kinomescan binding assay relative to control; values are per cent of control.
Assay [4] addresses Ephrin type-B receptor 1 (Homo sapiens) (UniProt P54762). The experiment in a line: Inhibition of EPHB1 (unknown origin) at 10 uM by Ambit Kinomescan binding assay.
Assay [5] addresses Dual specificity mitogen-activated protein kinase kinase 1 (Homo sapiens) (UniProt Q02750). Nature of the assay: Inhibition of MEK1 (unknown origin) at 10 uM by Ambit Kinomescan binding assay.
Assay [6] addresses Serine/threonine-protein kinase 10 (Homo sapiens) (UniProt O94804). Nature of the assay: Inhibition of LOK Lys1 labeling site harbouring NKETGALAAAKVIETK in human A-375 cells at 5 uM by KiNativ Profiling analysis relative to control. The format is cell-based.
Assay [7] addresses Serine/threonine-protein kinase A-Raf (Homo sapiens) (UniProt P10398). The experiment in a line: Inhibition of ARAF Lys2 labeling site in human A-375 cells at 0.5 uM by KiNativ Profiling analysis relative to control. The format is cell-based.
Assay [8] has as its target Serine/threonine-protein kinase mTOR (Homo sapiens) (UniProt P42345). The experiment in a line: Inhibition of FRAP ATP labeling site in human Huh-7 cells at 10 uM by KiNativ Profiling analysis relative to control. The format is cell-based.
The target in assay [9] is Dual specificity mitogen-activated protein kinase kinase 1 (Homo sapiens) (UniProt Q02750). The experiment in a line: Inhibition of MAP2K1 Lys2 labeling site harbouring IMHRDVKPSNILVNSR in human Huh-7 cell lysate at 1 uM by KiNativ Profiling analysis relative to control. The format is subcellular.
Assay [10] addresses Microtubule-associated serine/threonine-protein kinase 3 (Homo sapiens) (UniProt O60307). Nature of the assay: Inhibition of MAST3 Lys2 labeling site in human Huh-7 cell lysate at 1 uM by KiNativ Profiling analysis relative to control. The format is subcellular.
The target of assay [11] is 5'-AMP-activated protein kinase catalytic subunit alpha-1 (Homo sapiens) (UniProt Q13131). Nature of the assay: Inhibition of AMPKa1 ATP Loop labeling site in human Huh-7 cells at 1 uM by KiNativ Profiling analysis relative to control. The format is cell-based.
Assay [12] deals with Cyclin-dependent kinase 7 (Homo sapiens) (UniProt P50613). The experiment in a line: Inhibition of CDK7 Lys2 labeling site in human Huh-7 cells at 1 uM by KiNativ Profiling analysis relative to control. The format is cell-based.
The target of assay [13] is Serine/threonine-protein kinase MARK2 (Homo sapiens) (UniProt Q7KZI7). The experiment in a line: Inhibition of MARK2 Lys2 labeling site harbouring DLKAENLLLDADMNIK in human Huh-7 cells at 1 uM by KiNativ Profiling analysis relative to control. The format is cell-based.
The target of assay [14] is Serine/threonine-protein kinase PLK1 (Homo sapiens) (UniProt P53350). The experiment in a line: Inhibition of PLK1 Lys2 labeling site in human Huh-7 cells at 1 uM by KiNativ Profiling analysis relative to control. The format is cell-based.

Activity calls are given as the source filed them. The rule behind the calls is not given here.

Dual specificity mitogen-activated protein kinase kinase 1 (Homo sapiens), sequence (Q02750 whole entry): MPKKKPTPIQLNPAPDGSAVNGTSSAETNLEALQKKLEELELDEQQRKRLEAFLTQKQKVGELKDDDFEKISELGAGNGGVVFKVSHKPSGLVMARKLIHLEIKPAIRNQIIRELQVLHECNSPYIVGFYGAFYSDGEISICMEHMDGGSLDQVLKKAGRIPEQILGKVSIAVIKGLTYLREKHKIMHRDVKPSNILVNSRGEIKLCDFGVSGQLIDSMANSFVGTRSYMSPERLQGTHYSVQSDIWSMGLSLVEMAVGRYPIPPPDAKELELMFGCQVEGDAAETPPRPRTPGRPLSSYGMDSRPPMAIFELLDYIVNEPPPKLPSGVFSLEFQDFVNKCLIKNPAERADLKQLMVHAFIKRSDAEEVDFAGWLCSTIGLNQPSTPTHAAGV
Serine/threonine-protein kinase A-Raf (Homo sapiens), sequence (P10398 whole entry): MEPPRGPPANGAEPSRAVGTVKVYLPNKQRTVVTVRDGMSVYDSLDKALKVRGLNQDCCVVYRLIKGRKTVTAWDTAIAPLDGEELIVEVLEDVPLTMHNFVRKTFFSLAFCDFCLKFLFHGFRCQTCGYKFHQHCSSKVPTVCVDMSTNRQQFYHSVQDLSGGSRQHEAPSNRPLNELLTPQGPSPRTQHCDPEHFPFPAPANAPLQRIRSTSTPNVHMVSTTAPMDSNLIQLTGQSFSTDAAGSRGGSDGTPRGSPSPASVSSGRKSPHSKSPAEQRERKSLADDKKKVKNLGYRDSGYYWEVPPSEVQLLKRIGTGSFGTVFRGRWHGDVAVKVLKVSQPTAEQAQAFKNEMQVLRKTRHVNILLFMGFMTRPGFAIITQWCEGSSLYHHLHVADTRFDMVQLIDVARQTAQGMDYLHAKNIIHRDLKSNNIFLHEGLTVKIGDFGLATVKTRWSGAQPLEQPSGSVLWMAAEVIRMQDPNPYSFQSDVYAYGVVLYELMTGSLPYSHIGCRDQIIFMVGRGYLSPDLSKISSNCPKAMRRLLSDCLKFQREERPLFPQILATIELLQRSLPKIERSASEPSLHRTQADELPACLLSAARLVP
Serine/threonine-protein kinase 25 (Homo sapiens), sequence (O00506 whole entry, looked up): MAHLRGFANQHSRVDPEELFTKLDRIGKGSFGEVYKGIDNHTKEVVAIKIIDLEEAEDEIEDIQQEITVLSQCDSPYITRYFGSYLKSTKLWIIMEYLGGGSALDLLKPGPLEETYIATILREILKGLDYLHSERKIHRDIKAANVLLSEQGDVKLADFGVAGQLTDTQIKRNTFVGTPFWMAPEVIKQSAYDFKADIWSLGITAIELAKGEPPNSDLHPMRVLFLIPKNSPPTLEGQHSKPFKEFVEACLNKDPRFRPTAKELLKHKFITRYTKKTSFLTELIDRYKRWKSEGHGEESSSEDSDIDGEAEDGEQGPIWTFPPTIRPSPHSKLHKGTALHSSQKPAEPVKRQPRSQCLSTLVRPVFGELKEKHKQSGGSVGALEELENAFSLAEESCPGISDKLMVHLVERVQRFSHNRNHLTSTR
Ephrin type-B receptor 1 (Homo sapiens), sequence (P54762 whole entry): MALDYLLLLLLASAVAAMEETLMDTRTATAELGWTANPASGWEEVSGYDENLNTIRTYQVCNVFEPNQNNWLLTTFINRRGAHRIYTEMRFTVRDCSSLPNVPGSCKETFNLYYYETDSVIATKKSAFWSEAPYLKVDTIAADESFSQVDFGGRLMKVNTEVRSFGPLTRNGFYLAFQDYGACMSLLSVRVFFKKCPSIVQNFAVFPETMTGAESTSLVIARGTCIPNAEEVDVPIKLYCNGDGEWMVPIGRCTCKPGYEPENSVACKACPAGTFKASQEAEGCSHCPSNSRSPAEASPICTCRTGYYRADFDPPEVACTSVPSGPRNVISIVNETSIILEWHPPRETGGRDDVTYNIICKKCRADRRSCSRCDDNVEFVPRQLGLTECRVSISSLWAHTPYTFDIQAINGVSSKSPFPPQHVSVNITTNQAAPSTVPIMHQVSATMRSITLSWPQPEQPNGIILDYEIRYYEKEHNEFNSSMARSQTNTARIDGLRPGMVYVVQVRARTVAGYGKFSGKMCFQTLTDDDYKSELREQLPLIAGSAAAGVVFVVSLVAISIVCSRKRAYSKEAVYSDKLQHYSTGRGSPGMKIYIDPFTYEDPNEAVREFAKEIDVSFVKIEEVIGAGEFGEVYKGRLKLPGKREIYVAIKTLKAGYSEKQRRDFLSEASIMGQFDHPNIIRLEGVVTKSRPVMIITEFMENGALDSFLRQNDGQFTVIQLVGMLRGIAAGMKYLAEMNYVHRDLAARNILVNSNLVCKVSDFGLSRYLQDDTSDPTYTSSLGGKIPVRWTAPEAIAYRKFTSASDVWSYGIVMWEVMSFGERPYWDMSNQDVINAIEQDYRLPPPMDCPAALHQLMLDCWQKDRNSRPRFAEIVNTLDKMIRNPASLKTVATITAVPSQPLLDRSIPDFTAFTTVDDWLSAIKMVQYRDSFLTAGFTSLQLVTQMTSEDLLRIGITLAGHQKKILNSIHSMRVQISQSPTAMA
Microtubule-associated serine/threonine-protein kinase 3 (Homo sapiens), sequence (O60307 whole entry): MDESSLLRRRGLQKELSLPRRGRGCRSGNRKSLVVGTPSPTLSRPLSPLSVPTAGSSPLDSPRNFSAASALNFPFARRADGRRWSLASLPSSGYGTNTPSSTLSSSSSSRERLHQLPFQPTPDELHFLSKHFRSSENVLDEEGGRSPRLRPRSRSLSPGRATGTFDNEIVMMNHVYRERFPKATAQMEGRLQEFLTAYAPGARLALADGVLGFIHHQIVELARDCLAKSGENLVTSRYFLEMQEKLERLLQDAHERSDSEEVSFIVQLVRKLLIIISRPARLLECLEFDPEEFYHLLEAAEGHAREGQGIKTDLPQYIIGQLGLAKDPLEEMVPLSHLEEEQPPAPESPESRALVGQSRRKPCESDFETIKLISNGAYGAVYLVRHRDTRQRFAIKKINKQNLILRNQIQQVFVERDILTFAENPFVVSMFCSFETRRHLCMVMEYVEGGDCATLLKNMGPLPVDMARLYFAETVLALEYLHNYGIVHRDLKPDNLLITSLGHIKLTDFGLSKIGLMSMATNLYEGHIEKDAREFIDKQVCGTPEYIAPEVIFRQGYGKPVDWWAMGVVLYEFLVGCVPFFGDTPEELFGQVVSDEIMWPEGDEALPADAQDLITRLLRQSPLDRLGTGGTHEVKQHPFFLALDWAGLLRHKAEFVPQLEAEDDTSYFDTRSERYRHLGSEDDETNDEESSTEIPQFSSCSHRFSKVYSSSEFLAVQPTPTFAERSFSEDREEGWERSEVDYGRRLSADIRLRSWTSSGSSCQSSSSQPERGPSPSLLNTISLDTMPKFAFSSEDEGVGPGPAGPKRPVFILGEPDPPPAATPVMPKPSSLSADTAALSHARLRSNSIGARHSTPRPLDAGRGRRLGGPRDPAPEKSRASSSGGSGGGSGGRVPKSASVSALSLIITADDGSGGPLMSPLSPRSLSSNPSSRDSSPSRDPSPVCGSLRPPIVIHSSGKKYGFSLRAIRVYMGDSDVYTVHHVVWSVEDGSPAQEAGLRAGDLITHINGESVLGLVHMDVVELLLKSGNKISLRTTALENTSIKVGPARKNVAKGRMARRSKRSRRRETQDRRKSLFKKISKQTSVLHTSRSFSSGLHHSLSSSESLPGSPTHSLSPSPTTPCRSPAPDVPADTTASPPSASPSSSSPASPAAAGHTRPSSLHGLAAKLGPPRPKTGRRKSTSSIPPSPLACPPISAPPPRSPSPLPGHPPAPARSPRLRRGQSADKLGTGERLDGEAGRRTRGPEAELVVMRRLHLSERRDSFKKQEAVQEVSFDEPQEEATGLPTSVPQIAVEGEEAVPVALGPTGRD
Serine/threonine-protein kinase PLK1 (Homo sapiens), sequence (P53350 whole entry): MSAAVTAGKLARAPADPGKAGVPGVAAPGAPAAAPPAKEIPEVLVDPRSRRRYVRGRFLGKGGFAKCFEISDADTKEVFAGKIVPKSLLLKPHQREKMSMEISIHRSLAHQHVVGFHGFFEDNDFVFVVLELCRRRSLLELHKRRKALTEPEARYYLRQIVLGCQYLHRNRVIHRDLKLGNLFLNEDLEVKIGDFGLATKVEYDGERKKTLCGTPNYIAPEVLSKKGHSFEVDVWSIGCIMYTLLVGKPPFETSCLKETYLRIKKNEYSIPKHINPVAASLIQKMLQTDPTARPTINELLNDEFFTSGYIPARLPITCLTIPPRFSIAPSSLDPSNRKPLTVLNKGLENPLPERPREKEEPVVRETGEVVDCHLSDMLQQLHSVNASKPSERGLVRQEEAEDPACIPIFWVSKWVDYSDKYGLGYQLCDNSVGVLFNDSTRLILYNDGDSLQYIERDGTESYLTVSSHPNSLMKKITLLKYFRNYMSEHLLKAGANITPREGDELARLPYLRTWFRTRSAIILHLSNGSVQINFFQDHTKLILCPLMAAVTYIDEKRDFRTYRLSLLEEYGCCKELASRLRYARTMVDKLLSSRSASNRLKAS
Cyclin-dependent kinase 7 (Homo sapiens), sequence (P50613 whole entry): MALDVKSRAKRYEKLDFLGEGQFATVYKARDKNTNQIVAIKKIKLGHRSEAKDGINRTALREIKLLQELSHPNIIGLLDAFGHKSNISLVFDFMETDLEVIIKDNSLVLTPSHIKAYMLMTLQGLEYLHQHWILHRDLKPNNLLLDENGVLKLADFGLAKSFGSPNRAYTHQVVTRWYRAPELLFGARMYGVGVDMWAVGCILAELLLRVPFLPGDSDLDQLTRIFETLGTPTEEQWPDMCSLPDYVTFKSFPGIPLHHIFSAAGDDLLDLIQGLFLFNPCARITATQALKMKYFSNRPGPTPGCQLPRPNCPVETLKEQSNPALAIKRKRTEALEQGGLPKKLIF

Regarding `CCN1CCN(Cc2ccc(NC(=O)c3ccc(C)c(/C=C/c4cnc5[nH]ccc5c4OC)c3)cc2C(F)(F)F)CC1`, in assay [1], the inhibition is 16%. The residual activity in assay [2] was 79%. This compound yielded a percent of control in assay [3] of 100%.
Turning to `CCN1CCN(Cc2ccc(NC(=O)c3ccc(C)c(Oc4ccnc5[nH]ccc45)c3)cc2C(F)(F)F)CC1`, the inhibition result in [4], in [5] and in assay [8] was “inactive” throughout. In addition, the inhibition in [6] turned out to be 85.6%; in assay [7], 18.4%.
For the compound `CNc1cc(Oc2cc(C(=O)Nc3cc(N4CCN(C)CC4)cc(C(F)(F)F)c3)ccc2C)ncn1`, the inhibition in [9] is 23.6%; in [10], -0.3%; in [11], -3.8%; in [12], 2.6%; in assay [13], 19.4%; in assay [14], 1.3%.

The values above are taken from ChEMBL document CHEMBL5696442, “Discovery of type II inhibitors of TGFβ-activated kinase 1 (TAK1) and mitogen-activated protein kinase kinase kinase kinase 2 (MAP4K2)” (J Med Chem, 2015).
